How the values were obtained:
[1] = target: T1, murine integrin α4β1 (Mus musculus, UniProt P09055+Q00651); assay: 70Z3 cell adhesion to VCAM-1; assay type: cell-based
T1 construct: endogenous in cells; host or cells: 70Z3 cells

[2] = target: T2, integrin α4β1 (Homo sapiens, UniProt P05556+P13612); assay: K562(α4β1) cell adhesion to CS-1; assay type: cell-based; parameters: expressed in transfected cells; host or cells: K562(α4β1) cells
Source text: A. Structure of TBC3486. B. Structure of THI0510 (TBC3486 modified with conjugatable linker [TBC3486-conj] for functionalization with reactive dye and/or chelator reagents). C. TBC3486 and THI0510 inhibition of α4β1-K562 cell adhesion to the CS-1 sequence from fibronectin.
A. Conjugated THI375 analogue. B. THI375 analogue conjugated to the fluorescent dye sulfo-Cy5 (THI526). C. Activity of THI527, THI526, and TBC-4746 in K562-α4β1/CS-1 adhesion assays performed in Mn++.
First attempts to generate an integrin α4β1 imaging agent took advantage of the TBC3486 core scaffold. Modifications to the core scaffold were generated to determine an appropriate site to which imaging conjugates could be attached (FIG. 1). […] Next, imaging agents were attached to this conjugation site and their activities tested in cell adhesion assays.

[3] = target: T2, integrin α4β1; assay: K562(α4β1) cell adhesion to VCAM-1; assay type: cell-based; parameters: expressed in transfected cells; host or cells: K562(α4β1) cells
Procedure: A, B. Structure of THI520 and THI528. C. THI520 and THI0528 inhibition of α4β1-K562 cell adhesion to VCAM-1 (Mn++).
(§1) The core of this structure is different than that of TBC3486 (FIG. 3A). […] THI528 was tested for binding to integrin α4β1by flow cytometry (FIG. 4). Jurkat cells that express the integrin α4β1 (Jurkat(α4β1)), or mutagenized Jurkat cells that no longer express the integrin α4β1 (Jurkat(α4^null)), where incubated with increasing concentrations of THI528.

[4] = target: T2, integrin α4β1; assay: Flow cytometry binding to K562(α4β1) cells; parameters: expressed in transfected cells; host or cells: K562(α4β1) cells; conditions: cations Mn
[5] = target: T2, integrin α4β1; assay: Flow cytometry binding to Jurkat cells; conditions: for IC50: Jurkat, Flow Cytometry, Human
Procedure: B. Individual histograms of 10 nM dose of THI528±EDTA.
as §1

[6] = target: T1, murine integrin α4β1; assay: Flow cytometry binding to 70Z3 cells; conditions: 70Z3, Flow Cytometry, cations Mn
[7] = 70Z3, substrate VCAM-1, cations Ca/Mg
[8] = 70Z3, substrate VCAM-1, cations Mn
[9] = K562(α4β1), substrate CS-1, cations Mn, Human
[10] = K562(α4β1), substrate VCAM-1, cations Ca/Mg, Human (low affinity α4β1 adhesion assay), read-out: Activity (IC50) (converted)

T2 sequence (P13612 34-1032): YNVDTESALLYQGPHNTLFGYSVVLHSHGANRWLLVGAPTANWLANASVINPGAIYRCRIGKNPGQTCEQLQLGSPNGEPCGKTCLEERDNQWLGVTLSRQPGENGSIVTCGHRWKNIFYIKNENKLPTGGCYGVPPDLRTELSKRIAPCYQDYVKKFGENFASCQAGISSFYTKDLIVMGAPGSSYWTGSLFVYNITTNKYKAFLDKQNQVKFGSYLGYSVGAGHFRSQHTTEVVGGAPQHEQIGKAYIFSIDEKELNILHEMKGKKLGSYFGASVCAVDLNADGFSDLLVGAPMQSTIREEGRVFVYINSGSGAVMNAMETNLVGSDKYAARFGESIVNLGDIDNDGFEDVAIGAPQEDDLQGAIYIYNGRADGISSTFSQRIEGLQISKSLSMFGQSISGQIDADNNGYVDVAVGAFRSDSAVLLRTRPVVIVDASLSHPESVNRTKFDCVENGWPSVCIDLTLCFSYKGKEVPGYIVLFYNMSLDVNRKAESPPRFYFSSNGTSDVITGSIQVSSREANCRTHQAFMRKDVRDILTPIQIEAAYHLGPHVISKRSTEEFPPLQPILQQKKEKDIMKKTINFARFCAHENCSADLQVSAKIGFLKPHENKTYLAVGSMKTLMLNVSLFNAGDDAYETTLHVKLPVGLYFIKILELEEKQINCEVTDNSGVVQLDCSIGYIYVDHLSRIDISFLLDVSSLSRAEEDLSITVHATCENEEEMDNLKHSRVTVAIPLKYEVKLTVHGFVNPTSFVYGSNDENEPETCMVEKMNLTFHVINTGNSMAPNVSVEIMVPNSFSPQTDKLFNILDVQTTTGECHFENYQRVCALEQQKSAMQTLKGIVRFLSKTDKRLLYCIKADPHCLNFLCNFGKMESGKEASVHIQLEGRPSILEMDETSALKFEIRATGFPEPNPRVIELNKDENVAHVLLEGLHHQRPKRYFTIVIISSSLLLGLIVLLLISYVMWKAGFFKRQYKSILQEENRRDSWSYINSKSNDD
T2 sequence (P05556 21-798): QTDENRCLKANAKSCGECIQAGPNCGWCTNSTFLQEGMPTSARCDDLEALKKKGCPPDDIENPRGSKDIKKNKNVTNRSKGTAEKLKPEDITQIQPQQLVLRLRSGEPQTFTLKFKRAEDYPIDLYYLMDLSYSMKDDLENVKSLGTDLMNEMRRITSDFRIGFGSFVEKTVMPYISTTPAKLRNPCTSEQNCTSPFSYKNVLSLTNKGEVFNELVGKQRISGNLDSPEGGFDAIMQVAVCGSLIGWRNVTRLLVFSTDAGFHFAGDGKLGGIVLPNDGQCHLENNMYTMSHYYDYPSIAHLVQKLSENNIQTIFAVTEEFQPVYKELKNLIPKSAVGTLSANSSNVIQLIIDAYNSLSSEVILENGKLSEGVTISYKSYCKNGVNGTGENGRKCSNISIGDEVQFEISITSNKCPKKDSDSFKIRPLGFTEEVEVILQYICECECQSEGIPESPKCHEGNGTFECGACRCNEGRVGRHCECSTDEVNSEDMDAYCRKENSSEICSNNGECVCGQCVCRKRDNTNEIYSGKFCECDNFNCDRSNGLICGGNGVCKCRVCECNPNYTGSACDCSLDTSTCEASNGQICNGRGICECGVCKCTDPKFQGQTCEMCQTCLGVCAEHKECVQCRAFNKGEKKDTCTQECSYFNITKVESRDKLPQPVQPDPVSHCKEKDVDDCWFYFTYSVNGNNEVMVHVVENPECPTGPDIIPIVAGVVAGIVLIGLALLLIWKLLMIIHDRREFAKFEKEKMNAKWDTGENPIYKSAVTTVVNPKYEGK
T1 sequence (Q00651 41-1039): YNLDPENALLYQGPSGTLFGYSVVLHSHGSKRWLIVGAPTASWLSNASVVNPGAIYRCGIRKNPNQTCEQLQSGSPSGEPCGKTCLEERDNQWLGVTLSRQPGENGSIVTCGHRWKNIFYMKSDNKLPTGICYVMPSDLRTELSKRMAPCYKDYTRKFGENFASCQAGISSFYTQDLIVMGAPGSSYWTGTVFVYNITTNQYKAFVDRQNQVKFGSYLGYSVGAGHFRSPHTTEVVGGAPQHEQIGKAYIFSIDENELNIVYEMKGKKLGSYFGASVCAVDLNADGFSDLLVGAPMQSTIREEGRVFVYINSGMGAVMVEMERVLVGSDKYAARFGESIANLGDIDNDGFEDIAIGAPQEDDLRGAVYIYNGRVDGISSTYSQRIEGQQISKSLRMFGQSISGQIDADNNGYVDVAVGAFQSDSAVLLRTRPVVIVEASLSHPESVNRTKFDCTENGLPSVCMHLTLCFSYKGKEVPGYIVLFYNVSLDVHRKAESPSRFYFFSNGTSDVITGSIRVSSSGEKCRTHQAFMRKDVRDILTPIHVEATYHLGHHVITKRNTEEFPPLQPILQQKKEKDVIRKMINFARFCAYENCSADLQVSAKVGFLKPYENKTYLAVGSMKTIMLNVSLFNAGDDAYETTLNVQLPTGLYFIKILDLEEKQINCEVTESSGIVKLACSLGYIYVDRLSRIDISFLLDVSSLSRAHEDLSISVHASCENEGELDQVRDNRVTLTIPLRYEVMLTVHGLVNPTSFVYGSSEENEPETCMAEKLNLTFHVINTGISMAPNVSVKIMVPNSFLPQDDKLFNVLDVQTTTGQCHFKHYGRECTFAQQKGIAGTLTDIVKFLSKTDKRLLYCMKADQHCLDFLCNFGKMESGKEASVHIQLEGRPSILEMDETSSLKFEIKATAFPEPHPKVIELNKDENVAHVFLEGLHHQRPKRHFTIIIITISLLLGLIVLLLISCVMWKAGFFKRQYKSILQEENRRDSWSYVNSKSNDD
T1 sequence (P09055 21-798): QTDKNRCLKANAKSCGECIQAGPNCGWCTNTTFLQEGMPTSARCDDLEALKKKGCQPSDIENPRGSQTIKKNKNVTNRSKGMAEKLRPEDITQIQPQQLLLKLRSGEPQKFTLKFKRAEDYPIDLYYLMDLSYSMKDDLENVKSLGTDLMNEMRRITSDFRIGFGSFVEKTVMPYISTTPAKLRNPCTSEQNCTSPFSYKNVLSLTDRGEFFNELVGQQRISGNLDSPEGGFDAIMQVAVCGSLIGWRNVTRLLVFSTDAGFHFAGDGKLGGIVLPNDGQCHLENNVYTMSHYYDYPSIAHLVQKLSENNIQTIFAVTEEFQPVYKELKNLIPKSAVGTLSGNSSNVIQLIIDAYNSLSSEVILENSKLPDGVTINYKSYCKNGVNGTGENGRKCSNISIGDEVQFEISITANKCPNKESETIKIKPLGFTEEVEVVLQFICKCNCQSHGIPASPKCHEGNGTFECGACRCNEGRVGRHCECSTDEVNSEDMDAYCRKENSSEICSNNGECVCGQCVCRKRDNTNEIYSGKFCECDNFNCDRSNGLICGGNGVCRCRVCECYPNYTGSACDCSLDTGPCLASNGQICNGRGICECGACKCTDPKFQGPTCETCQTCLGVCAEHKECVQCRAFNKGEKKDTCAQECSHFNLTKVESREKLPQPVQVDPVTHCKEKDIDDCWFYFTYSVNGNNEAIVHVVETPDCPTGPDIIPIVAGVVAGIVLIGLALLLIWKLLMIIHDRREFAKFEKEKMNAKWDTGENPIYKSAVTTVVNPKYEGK

IC50 [2, 9] [nM]	IC50 ([5]; cations Mn) [nM]	SMILES	IC50 [1, 7] [nM]	IC50 [1, 8] [nM]	IC50 [3, 10] [nM]	also measured
2.2 ± 0.53		Cc1ccc([C@H](CC(=O)O)NC(=O)Nc2c(O)c(C)cn(Cc3ccccc3Cl)c2=O)cc1 [THI375]	10300	127	810	IC50 ([3]; K562(α4β1), substrate VCAM-1, cations Mn, Human, read-out: Activity (IC50) (converted)): 1.4 nM
1700 ± 1000		C[N+]1=C(/C=C/C=C/C=C2/N(CCCCCC(=O)NCCCCCC(=O)NCCCC[C@@H](NC(=O)N[C@H](CC(=O)O)c3ccc4c(c3)OCO4)C(=O)N(Cc3cccs3)Cc3cccs3)c3ccc(S(=O)(=O)[O-])cc3C2(C)C)C(C)(C)c2cc(S(=O)(=O)O)ccc21 [THI517]				IC50 [4]: > 1000 nM
	0.069	CCOc1cccc([C@H](CC(=O)O)NC(=O)Nc2c(OCCCCCCNC(=O)CCCCC[N+]3=C(/C=C/C=C/C=C4/N(C)c5ccc(S(=O)(=O)[O-])cc5C4(C)C)C(C)(C)c4cc(S(=O)(=O)[O-])ccc43)c(C)cn(Cc3c(Cl)cccc3OCC)c2=O)c1.[Na+] [THI528]				Kd ([5]; Jurkat(α4β1) cells, flow cytometry, n=1, read-out: apparent Kd): 0.26 nM; IC50 ([5]; cations Ca/Mg): 0.202 nM; binding to Jurkat cells expressing α4β1 ([5]; flow cytometry, increasing concentrations): Specific and saturable binding; binding in presence of EDTA or to Jurkat cells lacking α4β1 ([5]; flow cytometry, EDTA or Jurkat(α4β1) cells as printed): no detectable binding; antagonist activity after conjugation to sulfo-Cy5 ([3]; compared with THI520): no apparent loss in antagonist activity; IC50 ([3]; n=3, same value as Table 2 K562(α4β1)/VCAM-1/Mn, read-out: a4b1 IC50): 0.519 ± 0.097 nM; IC50 [6]: 0.06 nM
		C[N+]1=C(/C=C/C=C/C=C2/N(CCCCCC(=O)NCCCCCC(=O)O)c3ccc(S(=O)(=O)[O-])cc3C2(C)C)C(C)(C)c2cc(S(=O)(=O)[O-])ccc21.[Na+] [THI529]				Activity (IC50) ([2]; K562(α4β1), substrate CS-1, cations Mn, Human, result in words): No Activity (n = 3) K562(α4β1)
	0.078 ± 0.037	CCOc1cccc([C@H](CC(=O)O)NC(=O)Nc2c(OCCCCCCNC(=O)C(CNC(=O)C(CNC(=O)CCCCC[N+]3=C(/C=C/C=C/C=C4/N(C)c5ccc(S(=O)(=O)[O-])cc5C4(C)C)C(C)(C)c4cc(S(=O)(=O)O)ccc43)S(=O)(=O)O)S(=O)(=O)O)c(C)cn(Cc3c(Cl)cccc3OCC)c2=O)c1 (stereo partly shown) [THI540]				

SMILES	IC50 [2, 9] [nM]	IC50 ([5]; cations Mn) [nM]	IC50 [1, 7] [nM]	IC50 [1, 8] [nM]	IC50 [3, 10] [nM]	also measured
CCOc1cccc([C@H](CC(=O)[O-])NC(=O)Nc2c([O-])c(C)cn(Cc3c(Cl)cccc3OCC)c2=O)c1.[Na+].[Na+] [THI520]	0.11 ± 0.04		129	0.75	6.3 ± 3.1	activity in high affinity assays ([2]; high affinity α4β1 adhesion assays): pM activity

From patent publication US20210393811A1, “Imaging Agents and Methods of Use” (Texas Heart Institute, priority 2018, published 2021)
